Test [1] relates to murine P388 lymphocytic leukemia cells. The test can be described thus: In vitro anti-tumor activity against murine P388 lymphocytic leukemia cells (MTT, 72 h). It is filed as cell-based. Particulars: Mus musculus; murine P388 cells, 72 h, MTT; read-out: IC50 (50% proliferation inhibitory concentration). The protocol: Test compounds were tested for anti-tumor activity according to MTT [3-(4,5-dimethylthiazol-2-yl)-2,5-diphenyltetrazolium bromide] method, using murine P388 lymphocytic leukemia cells. […] The culture medium was centrifuged (4° C., 2,000 rpm for 20 minutes), and thus, the supernatants were removed by suction. Then, 0.1 ml of dimethyl sulfoxide was put in each well to dissolve the formed formazan, and, subsequently, another 0.1 ml of dimethyl sulfoxide was added. The absorbance (OD) of each of the obtained solutions was measured by use of Multiskan Bichromatic (main wavelength 570 nm, sub-wavelength 690 nm). […] IC50 :μg/ml) were calculated by the least squares method.

In test [2] the test system is KB human nasopharynx cancer. The test can be described thus: In vitro anti-tumor activity against KB human nasopharynx cancer (MTT). It is filed as cell-based. Particulars: KB, 72 h, MTT, read-out: IC50. The protocol:
(§1) A culture medium containing 500 to 2,000 human cancer cells was put in an amount of 0.1 ml in each well of 96-well plate, and the cells were cultured for 20 hours under a condition of 37° C. and 5% carbon dioxide gas in air. After the culturing, a solution of test compounds of predetermined concentration was added, and then, the cells were cultured for further 72 hours. After the culturing, an MTT (5 mg/ml) solution was added in an amount of 0.01 ml in the respective wells, and the cells were cultured for further 4 hours. The supernatants of the culture medium were removed by suction, and then, 0.1 ml of dimethyl sulfoxide was put in respective well to dissolve the formed formazan, and, moreover, 0.1 ml of dimethyl sulfoxide was added.

The next test has as its system HMV2 human melanoma. The test can be described thus: In vitro anti-tumor activity against HMV-2 human melanoma (MTT). The format is cell-based. Particulars: HMV-2, 72 h, MTT, read-out: IC50. The protocol:
as §1

Test [3] has as its system AZ521 human stomach cancer. The test can be described thus: In vitro anti-tumor activity against AZ-521 human stomach cancer (MTT). It is filed as cell-based. Particulars: AZ-521, 72 h, MTT, read-out: IC50. The method, then:
as §1

Test [4] relates to MKN45 human stomach cancer. The test can be described thus: In vitro anti-tumor activity against MKN45 human stomach cancer (MTT). The format is cell-based. Particulars: MKN-45, MKN45, 72 h, MTT, read-out: IC50. The protocol: as §1
The test system of test [5] is WiDr human colorectal cancer. The test can be described thus: In vitro anti-tumor activity against WiDr human colorectal cancer (MTT). It is filed as cell-based. Particulars: 72 h, MTT, read-out: IC50. The protocol: as §1
The next test concerns C33A human cervix cancer. The test can be described thus: In vitro anti-tumor activity against C-33A human cervix cancer (MTT). Particulars: C-33A, 72 h, MTT, read-out: IC50. The format is cell-based. The protocol: as §1
The next test concerns A427 human lung cancer. The test can be described thus: In vitro anti-tumor activity against A-427 human lung cancer (MTT). Particulars: A-427, 72 h, MTT, read-out: IC50. It is filed as cell-based. The method, then: as §1
For test [6], the system named is murine P388 lymphocytic leukemia cells. The test can be described thus: Increases in life span of mice implanted with murine P388 lymphocytic leukemia cells. The format is in vivo, SLC: BDF1 mice. Particulars: Mus musculus, P388, ip, 720 h, ip. The method, then:
1×10^6 murine P388 lymphocytic leukemia cells were intraperitoneally implanted in each of SLC: BDF1 mice (8 to 10 weeks old, female, 7 animals per one group). A test compound (drug) was either dissolved in 0.1 N--NaOH or suspended in 0.4% carboxymethylcellulose solution, and the resultant solution or suspension was diluted with distilled water or 0.4% carboxymethylcellulose solution so as to give predetermined concentrations for administration. The obtained solution was intraperitoneally (ip) administered twice, namely on the day following the implantation (1st day) and the 5th day, each 0.2 ml. The life and death of the mice were observed over a period of 30 days, and the median survival time (hereinafter referred to as MST) was determined for each group, and, thus, the increase in life span (ILS; %) was calculated according to the following equation:
ILS (%)=[{(MST of the test group)/(MST of the control group)}-1]×100
Drug effect was judged in the following manner, according to the criterion of U.S. National Cancer Institute (NCI):
ILS=75% or higher: ++ (remarkably effective);
20 to 74%: + (effective);
19% or lower: - (ineffective)

Test [7] deals with colon 26 murine tumor cells. The test can be described thus: Tumor growth inhibition effect on colon 26 murine tumor cells implanted mice. Particulars: Mus musculus, Colon 26, 504 h, ip, days 1-9, day 21 or 22, read-out: Tumor growth inhibition rate IR (%); for inhibition in vivo at 1.56 mg/kg: 1.56 mg/kg once a day; for inhibition in vivo at 3.13 mg/kg: 3.13 mg/kg once a day. It is filed as in vivo, SLC: CDF1 mice. The protocol: A 2% brei of colon 26 murine tumor cells was intracutaneously implanted each 0.1 ml in the abdominal part of SLC: CDF1 female mice (7 to 9 weeks old, 7 animals per one group). […] The obtained solutions were intraperitoneally (ip) administered each 0.2 ml once a day, from the day (1st day) following the implantation to the 9th day. On the 21st or 22nd day after the implantation, tumor weight was estimated from tumor diameters, and thus, the tumor growth inhibition rate (IR %) of the drug administered group in comparison with the control group was calculated according to the following equation. IR (%)=[1-{(MTW in the treated group)/(MTW in the control group)}]×10 0 MTW: mean tumor weight

Where [8] appears, read: NCI criterion, read-out: Evaluation.
[9] abbreviates: days 1 and 5, in suspension, read-out: ILS (%) (in suspension).

Converted amounts (≈) assume the structure as drawn. Read-outs that look alike come from different tables or passages of the source. A value given as a limit tells only on which side of the number the result lay.

As to `CN[C@@H]1CN(c2ccc3c(=O)c(C=O)cn(-c4nccs4)c3n2)C[C@H]1OC.Cl` (relative stereo) [Compound 11, 3-Formyl-1,4-dihydro-7-(trans-3-methoxy-4-methylamino-1-pyrrolidinyl)-4-oxo-1-(2-thiazolyl)-1,8-naphthyridine hydrochloride], the IC50 turned out to be 0.0309 µg/mL in test [1]; 0.179 µg/mL in test [2]; 0.214 µg/mL with HMV2 human melanoma; 0.0307 µg/mL in [3]; 0.144 µg/mL in [4]; 0.264 µg/mL in [5]. The values for the IC50 with C33A human cervix cancer and in the test on A427 human lung cancer were 0.161 µg/mL and 0.0749 µg/mL, respectively. Besides, the ILS at 3.13 mg/kg is > 75% in [6] (setting [8]) and 88% in [6] (setting [9]). For the same compound, the ILS at 12.5 mg/kg is > 75% in test [6] (setting [8]) and 150% in [6] (setting [9]). The ILS at 50 mg/kg in [6] (setting [8]) was > 75%; in [6] (setting [9]), 225%. Moreover, in test [7] (0.78 mg/kg once a day), the inhibition in vivo at 0.78 mg/kg was 50%. In addition, the inhibition in vivo at 1.56 mg/kg in [7] amounted to 58%.
As for `CN[C@@H]1CN(c2ccc3c(=O)c(C(=O)O)cn(-c4nc(F)cs4)c3n2)C[C@H]1OC` (relative stereo) [Compound 16], the IC50 in [1] is 0.0344 µg/mL (≈ 0.082 µM); in test [2], 0.126 µg/mL (≈ 0.3 µM); in the test on HMV2 human melanoma, 0.181 µg/mL (≈ 0.432 µM); in test [3], 0.0798 µg/mL (≈ 0.19 µM); in [4], 0.148 µg/mL (≈ 0.353 µM); in test [5], 0.322 µg/mL (≈ 0.768 µM). The IC50 in the test with C33A human cervix cancer was 0.132 µg/mL (≈ 0.315 µM); with A427 human lung cancer, 0.145 µg/mL (≈ 0.346 µM). Also, the figures for the ILS at 3.13 mg/kg in test [6] (setting [8]) and in test [6] (setting [9]) were 20 to 74% and 38%, respectively. Further, the ILS at 12.5 mg/kg in [6] (setting [8]) is > 75%; in test [6] (setting [9]), 138%. For the same compound, the ILS at 50 mg/kg in [6] (setting [8]) is > 75%; in [6] (setting [9]), 238%. In addition, the inhibition in vivo at 3.13 mg/kg in test [7] worked out at 77%.
`Cl.Nc1cc(N2CCC(N)C2)nc2c1c(=O)c(C(=O)O)cn2-c1nccs1` (stereo not drawn) [Compound 9, 5-Amino-7-(3-amino-1-pyrrolidinyl)-1,4-dihydro-4-oxo-1-(2-thiazolyl)-1,8-naphthyridine-3-carboxylic acid hydrochloride]: the IC50 amounted to 0.00809 µg/mL in test [1]; 0.106 µg/mL in test [2]; 0.211 µg/mL in the test with HMV2 human melanoma; 0.0625 µg/mL in [3]; 0.148 µg/mL in test [4]; 0.412 µg/mL in test [5]. Besides, the IC50 is 0.151 µg/mL in the test with C33A human cervix cancer and 0.1 µg/mL in the test on A427 human lung cancer. Further, the ILS at 3.13 mg/kg in [6] (setting [8]) was > 75%; in test [6] (setting [9]) it was 100%. Further, the ILS at 12.5 mg/kg in test [6] (setting [8]) is > 75%; in test [6] (setting [9]), 125%. Moreover, the ILS at 50 mg/kg in [6] (setting [8]) is > 75%; in [6] (setting [9]), 250%. In test [7], the inhibition in vivo at 3.13 mg/kg worked out at 62%. For the same compound, the inhibition in vivo at 6.25 mg/kg in test [7] (6.25 mg/kg once a day) came out at 97%.
On to `Cl.NC1CCN(c2ccc3c(=O)c(C(=O)O)cn(-c4nc(F)cs4)c3n2)C1` (stereo not drawn) [Compound 8, 7-(3-Amino-1-pyrrolidinyl)-1-(4-fluoro-2-thiazolyl)-1,4-dihydro-4-oxo-1,8-naphthyridine-3-carboxylic acid hydrochloride], for which the IC50 in test [1] turned out to be 0.00413 µg/mL; in test [2], 0.0494 µg/mL; in the test on HMV2 human melanoma it was 0.0578 µg/mL; in test [3], 0.0285 µg/mL; in test [4] it was 0.143 µg/mL; in test [5] it was 0.323 µg/mL. Besides, the IC50 with C33A human cervix cancer is 0.0712 µg/mL; in the test with A427 human lung cancer it was 0.0625 µg/mL. Also, the ILS at 0.78 mg/kg is > 75% in test [6] (setting [8]) and 75% in test [6] (setting [9]). Further, the results for the ILS at 3.13 mg/kg in test [6] (setting [8]) and in [6] (setting [9]) were > 75% and 175%, respectively. In addition, the figures for the ILS at 12.5 mg/kg in test [6] (setting [8]) and in [6] (setting [9]) were > 75% and > 275%, respectively. In [7] (0.39 mg/kg once a day), the inhibition in vivo at 0.39 mg/kg was 57%. In addition, in test [7], the inhibition in vivo at 1.56 mg/kg amounted to 91%.
